Holding throughout (format): biochemical
For test [1], the target named is T1, recombinant CAC (WT) (Rattus norvegicus, UniProt P97521).
T1 construct: made in house; host or cells: E. coli C0214
T1 sequence (P97521 1-301): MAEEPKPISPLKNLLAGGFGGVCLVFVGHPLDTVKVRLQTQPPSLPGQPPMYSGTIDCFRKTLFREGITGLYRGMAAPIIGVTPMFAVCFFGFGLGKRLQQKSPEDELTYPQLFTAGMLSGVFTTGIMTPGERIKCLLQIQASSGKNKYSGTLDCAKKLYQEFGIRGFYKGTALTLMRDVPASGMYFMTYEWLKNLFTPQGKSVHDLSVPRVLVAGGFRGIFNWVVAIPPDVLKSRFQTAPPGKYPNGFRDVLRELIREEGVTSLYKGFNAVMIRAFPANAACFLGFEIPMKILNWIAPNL
As to the kind of experiment: [3H]carnitine/carnitine antiport in proteoliposomes reconstituted with recombinant WT CAC. The protocol:
(§1) As previously described, the pMW7-WTratCAC recombinant plasmid was used for over-expressing the rat CAC [22]. The overlap extension method was used to introduce the mutations; in the main time, NdeI and HindIII restriction sites were also added using appropriate primers. The PCR products were purified by the QIAEX II Gel Extraction Kit (QIAGEN) and digested with NdeI and HindIII and then ligated into the pMW7. All mutations were verified by DNA sequencing. The resulting plasmid constructs were transformed into E. coli C0214. Overexpression, inclusion body fraction preparation, and purification of the CAC proteins were performed as previously described.
As previously described, recombinant CAC (WT and mutants) and ORC1 proteins were used for proteoliposome formation. For experiments with native CAC, ORC1, or ANT proteins, rat liver mitochondria, or HeLa cell mitochondria, the latter for the CAC alone, were first purified using the standard procedure of cell disruption and differential centrifugation. Then proteins were extracted using 3% Triton X-100 and reconstituted as described for the recombinant proteins. The concentration of intraliposomal carnitine and ornithine was 15 mM and 30 mM, respectively, in all samples.
To test the transport activity of the CAC, 550 μL of proteoliposomes was passed through a Sephadex G-75 column to remove the external substrate. Six hundred μL of the turbid eluate was collected, divided into samples of 100 μL each, and used for transport measurement by the inhibitor-stop method. Transport was started by adding 0.1 mM [^3H]carnitine ([^3H]ornitine or [^3H]ATP) to proteoliposome samples and stopped with 1.5 mM NEM (N-ethylmaleimide) at the indicated time interval. In the control samples, NEM was added with the labeled substrate at time zero. Transport rates were measured in 10 min, i.e., within the initial linear range of the time course, at 25 °C. After terminating the transport reaction, the external substrate was removed by chromatography on the Sephadex G-75 column, and the intraliposomal radioactivity was measured. The experimental values were corrected by subtracting the controls.
Figure 1 Effect of itaconate on the native and recombinant mitochondrial carnitine/acylcarnitine (CAC). Dose–response analysis for itaconate inhibition was carried out using proteoliposomes reconstituted with native (○) or recombinant (●) CAC carriers. After 10 min of itaconate incubation, transport activity was started by adding 0.1 mM [^3H]carnitine and stopped after 10 min as described in Section 2. Percent of residual activity with respect to the control, without itaconate treatment, was reported. The values are the means ± SD from three independent experiments.
Figure 2 Effect of different pH on the inhibition of CAC protein by itaconate. (a) Proteoliposomes reconstituted with the recombinant CAC were incubated at various pHs (range pH 6.5–8.5) for 10 min with 10 mM itaconate. (b) Dose–response analysis of inhibition by itaconate of the recombinant CAC at pH 6.5. was performed. Proteoliposomes were incubated for 10 min at pH 6.5 with itaconate at the indicated concentrations. In both (a,b), the transport activity was measured for 10 min by adding to proteoliposomes 0.1 mM [^3H]carnitine.

Test [2] addresses T2, CAC C155A mutant (Rattus norvegicus, UniProt P97521, C155A).
T2 construct: made in house; host or cells: E. coli C0214
T2 sequence (P97521 1-301 C155A): T1 sequence (P97521 1-301) with C155A
As to the kind of experiment: Transport assay in proteoliposomes, CAC mutant C155A. The settings on record: read-out: IC50 for itaconate inhibition. The protocol: as §1, with “described. […]” for “described.”
(§2) To test the transport activity of the CAC, 550 μL of proteoliposomes was passed through a Sephadex G-75 column to remove the external substrate. […] Transport rates were measured in 10 min, i.e., within the initial linear range of the time course, at 25 °C. After terminating the transport reaction, the external substrate was removed by chromatography on the Sephadex G-75 column, and the intraliposomal radioactivity was measured. […]
Figure 3 Identification of residue responsible for itaconate inhibition. […] Transport activity of the WT (○), C136A (●), C155A (Δ), C23V/C58V/C89S/C155V/C283S (▲), and C23V/C58V/C89S/C136V/C155V/C283S (□) was measured by adding 0.1 mM [^3H]carnitine after treatment by itaconate at the indicated concentrations. […]

Test [3] has as its target T3, CAC K135A mutant (Rattus norvegicus, UniProt P97521, K135A).
T3 construct: made in house; host or cells: E. coli C0214
T3 sequence (P97521 1-301 K135A): T1 sequence (P97521 1-301) with K135A
As to the kind of experiment: Transport assay in proteoliposomes, CAC mutant K135A. The conditions noted are these: read-out: IC50 for itaconate inhibition. Here is the method: as §1, with “described. […]” for “described.”
as §2
Figure 9 Dose–response analysis of inhibition by itaconate of WT protein (○) and the K135A (●) mutant was performed by measuring the transport activity with or without itaconate treatment. […] The data are expressed as a percent of the own controls and are means ± SD from three independent experiments.

Substitutions are numbered along the chain they refer to. Where two headings read alike, the source gives them in different places.

For orientation: inhibition means the drop in the measured response relative to a control, in per cent. As a reminder, the Ki is a dissociation constant, usually derived from enzyme kinetics or from competition with a known ligand. As usually defined, the IC50 is the concentration needed to halve the response being measured.

Consider `C=C(CC(=O)O)C(=O)O` [itaconate], for which the “reversal of inhibition by the reducing agent DTE” value in test [1] (10 mM itaconate pre-incubation 10 min, 25 mM DTE, transport 30 min) was “not able to reverse the inhibition”. In addition, the inhibition at 10000 µM in test [1] (10 mM itaconate, 10 min, pH 6.5, read-out: inhibition of transport) was roughly 80%; in test [1] (10 mM itaconate, pH 7.0, 10 min, without carnitine, unreacted compound removed by G-75, read-out: inhibition compared to the control), roughly 55%. The inhibition of transport result in test [1] (10 mM itaconate, 10 min, pH 8.0 and pH 8.5) is “Virtually no inhibition”. In addition, the type of inhibition result in test [1] (WT, double reciprocal plot) is on record as “non-competitive inhibition”. The inhibition constant Ki in test [1] (pH 7.0, 10 mM itaconate, Lineweaver-Burk plot) was 14 ± 2.6 mM. In addition, the IC50 stood at 8.4 ± 2.9 mM in test [1] (recombinant CAC, 10 min incubation, 0.1 mM [3H]carnitine, pH 7.0, read-out: IC50 for itaconate inhibition of transport); 3.8 ± 1 mM in test [1] (recombinant WT CAC, pH 6.5, 10 min incubation, read-out: IC50 for inhibition of transport at pH 6.5); 3.8 ± 0.64 mM in test [2]; 16 ± 2.6 mM in test [3].

The values are drawn from article PMC10296061, “Inhibition of the Mitochondrial Carnitine/Acylcarnitine Carrier by Itaconate through Irreversible Binding to Cysteine 136: Possible Pathophysiological Implications” (Biomolecules, 2023).
